Measurements: PMC5620994, “Halogenation of glycopeptide antibiotics occurs at the amino acid level during non-ribosomal peptide synthesis” (Chemical Science, 2017)

Columns and labels:
[1] = target: T1, BhaA (balhimycin halogenase) (Amycolatopsis balhimycina, UniProt O87676); test: purified as FAD-bound form; format: binding; conditions: FAD co-purified with the enzyme
T1 construct: overproduced in Pseudomonas fluorescens BL915 deltaORF1-4 from shuttle vector pCIBhis (His tag)

[2] = target: T2, Tcp21 (halogenase from the teicoplanin system) (Actinoplanes teichomyceticus, UniProt Q70AY7); test: purified as FAD-bound form; format: binding; conditions: FAD co-purified with the enzyme
T2 construct: synthetic codon-optimised gene, selected range 16-506, pET-28(a) via NdeI/HindIII, His-tagged, expressed in E. coli
T2 sequence (Q70AY7 16-506): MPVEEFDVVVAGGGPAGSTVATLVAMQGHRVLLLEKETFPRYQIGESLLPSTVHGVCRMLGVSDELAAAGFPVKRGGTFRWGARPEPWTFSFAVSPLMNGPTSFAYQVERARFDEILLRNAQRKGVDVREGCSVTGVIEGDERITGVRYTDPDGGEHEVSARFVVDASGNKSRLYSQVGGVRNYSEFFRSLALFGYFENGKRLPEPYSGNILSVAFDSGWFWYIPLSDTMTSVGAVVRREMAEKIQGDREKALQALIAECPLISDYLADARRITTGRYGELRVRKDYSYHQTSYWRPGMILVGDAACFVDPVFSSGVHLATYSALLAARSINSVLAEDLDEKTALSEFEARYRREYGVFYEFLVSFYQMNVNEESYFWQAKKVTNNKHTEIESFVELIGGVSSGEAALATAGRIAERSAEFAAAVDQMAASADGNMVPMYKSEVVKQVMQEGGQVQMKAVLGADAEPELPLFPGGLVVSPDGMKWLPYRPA

T1 sequence (O87676 entry or part of it): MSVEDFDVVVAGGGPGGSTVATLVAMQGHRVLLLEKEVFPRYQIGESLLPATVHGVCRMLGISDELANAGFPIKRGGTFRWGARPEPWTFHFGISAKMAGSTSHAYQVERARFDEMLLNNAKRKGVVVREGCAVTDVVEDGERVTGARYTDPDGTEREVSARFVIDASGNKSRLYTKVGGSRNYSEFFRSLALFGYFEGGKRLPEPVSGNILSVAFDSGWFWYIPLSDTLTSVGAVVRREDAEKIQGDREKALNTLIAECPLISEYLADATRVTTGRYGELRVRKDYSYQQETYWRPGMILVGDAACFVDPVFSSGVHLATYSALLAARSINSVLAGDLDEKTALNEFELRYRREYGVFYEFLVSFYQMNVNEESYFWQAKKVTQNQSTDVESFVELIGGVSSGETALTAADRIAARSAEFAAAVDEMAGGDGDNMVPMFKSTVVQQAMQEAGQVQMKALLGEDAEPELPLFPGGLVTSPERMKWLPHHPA

SMILES: Cc1cc2nc3c(=O)[nH]c(=O)nc-3n(C[C@H](O)[C@H](O)[C@H](O)COP(=O)(O)OP(=O)(O)OC[C@H]3O[C@@H](n4cnc5c(N)ncnc54)[C@H](O)[C@@H]3O)c2cc1C [FAD]
- purified as FAD-bound form [1]: Both enzymes could be overproduced and purified in an FAD-bound form as anticipated
- purified as FAD-bound form [2]: Both enzymes could be overproduced and purified in an FAD-bound form as anticipated
